ChEMBL document CHEMBL4190383, “Hit discovery of Mycobacterium tuberculosis inosine 5'-monophosphate dehydrogenase, GuaB2, inhibitors” (Bioorg Med Chem Lett, 2018)
In brackets after ≈: the same amount, converted by molar mass. Activity calls are given as the source filed them. No cut-off for these calls is given here.

Key:
[1] = system: Mycobacterium tuberculosis; test: Antimicrobial activity against Mycobacterium tuberculosis H37Rv by alamar blue assay; assay type: functional
[2] = system: Mycobacterium tuberculosis; test: Antimicrobial activity against Mycobacterium tuberculosis SRMV2.6 H37Rv by alamar blue assay; assay type: functional
[3] = system: Mycobacterium tuberculosis; test: Inhibition of Mycobacterium tuberculosis GuaB2 at 50 uM
[4] = Inhibition of Mycobacterium tuberculosis GuaB2
[5] = Octanol/water partition coefficient , logP of the compound; assay type: physicochemical
[6] = system: Mycobacterium tuberculosis; test: Antimicrobial activity against Mycobacterium tuberculosis H37Rv in presence of 0.15 ng/ml anhydrotetracycline-induced guaB2 gene silencing by alamar blue assay; assay type: functional
[7] = system: Mycobacterium tuberculosis; test: Antimicrobial activity against Mycobacterium tuberculosis H37Rv in presence of 0.31 ng/ml anhydrotetracycline-induced guaB2 gene silencing by alamar blue assay; assay type: functional
[8] = system: Mycobacterium tuberculosis; test: Antimicrobial activity against Mycobacterium tuberculosis H37Rv in presence of 0.08 to 5 ng/ml anhydrotetracycline-induced guaB2 gene silencing by alamar blue assay; assay type: functional, organism-based
[9] = biological target: Inosine-5'-monophosphate dehydrogenase 2 (Homo sapiens) (UniProt P12268); test: Inhibition of human IMPDH2 at 10 uM
[10] = system: Staphylococcus aureus; test: Growth inhibition of methicillin-resistant Staphylococcus aureus at 32 ug/ml; assay type: functional; conditions: read-out: GI
[11] = system: Escherichia coli; test: Growth inhibition of Escherichia coli at 32 ug/ml; assay type: functional; conditions: read-out: GI
[12] = system: Klebsiella pneumoniae; test: Growth inhibition of Klebsiella pneumoniae at 32 ug/ml; assay type: functional; conditions: read-out: GI
[13] = system: Pseudomonas aeruginosa; test: Growth inhibition of Pseudomonas aeruginosa at 32 ug/ml; assay type: functional; conditions: read-out: GI
[14] = system: Acinetobacter baumannii; test: Growth inhibition of Acinetobacter baumannii at 32 ug/ml; assay type: functional; conditions: read-out: GI
[15] = system: Candida albicans; test: Growth inhibition of Candida albicans at 32 ug/ml; assay type: functional; conditions: read-out: GI
[16] = system: Cryptococcus neoformans; test: Growth inhibition of Cryptococcus neoformans var. grubii at 32 ug/ml; assay type: functional; conditions: read-out: GI

Inosine-5'-monophosphate dehydrogenase 2 (Homo sapiens), sequence (P12268 2-514 limits assumed): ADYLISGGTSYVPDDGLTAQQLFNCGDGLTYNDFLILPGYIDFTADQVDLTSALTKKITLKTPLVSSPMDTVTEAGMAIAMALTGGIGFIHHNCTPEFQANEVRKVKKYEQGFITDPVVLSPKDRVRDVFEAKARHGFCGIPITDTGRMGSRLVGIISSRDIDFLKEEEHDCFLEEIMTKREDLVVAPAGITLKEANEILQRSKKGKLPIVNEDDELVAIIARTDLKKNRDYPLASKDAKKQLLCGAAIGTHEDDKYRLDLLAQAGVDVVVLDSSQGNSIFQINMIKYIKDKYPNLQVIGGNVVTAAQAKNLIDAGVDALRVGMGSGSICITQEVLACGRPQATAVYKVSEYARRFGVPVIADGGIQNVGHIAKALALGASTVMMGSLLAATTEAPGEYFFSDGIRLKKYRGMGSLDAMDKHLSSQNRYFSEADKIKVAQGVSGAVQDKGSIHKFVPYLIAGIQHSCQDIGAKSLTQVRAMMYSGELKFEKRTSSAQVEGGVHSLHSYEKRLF

O=C(Cc1ccc(F)c2ccccc12)Nc1ccc2c(c1)COC2=O
MIC90 [1]: 100 µM (≈ 33.5 µg/mL)
MIC90 [2]: 100 µM (≈ 33.5 µg/mL)
inhibition [3]: 99.9%
IC50 [4]: 3.04 µM
logP [5]: 2.5 to 3.5
MIC [6]: 12.5 µM
MIC [7]: 12.5 µM
Activity [8]: Active
inhibition [9]: 0.1%
inhibition of growth at 32 µg/mL [10]: 2.37%
inhibition of growth at 32 µg/mL [11]: -4.49%
inhibition of growth at 32 µg/mL [12]: 13.4%
inhibition of growth at 32 µg/mL [13]: -3.45%
inhibition of growth at 32 µg/mL [14]: -2.02%
inhibition of growth at 32 µg/mL [15]: 5.47%
inhibition of growth at 32 µg/mL [16]: -49.8%
